We go through 1 compound from patent US20260085058A1, “DEGRADERS OF SON OF SEVENLESS HOMOLOG 1” (H. LEE MOFFITT CANCER CENTER AND RESEARCH INSTITUTE, INC., priority 2022, published 2026).

In one assay the test system is SW620 cells. Description: Multiplexed quantitative global proteomics, specificity of SOS1 degradation. The class given is cell-based. The conditions noted are these: 1 μM, 24 hours, vs DMSO. The protocol: Sample Preparation: Approximately 10 millions of SW620 cells were treated with 1 μM P7 or 0.2% DMSO for 24 hours, respectively. Triplicate samples for each condition were provided as cell pellets. Cells were lysed in denaturing lysis buffer containing 8M urea, 20 mM HEPES (pH 8), 1 mM sodium orthovanadate, 2.5 mM sodium pyrophosphate and 1 mM β-glycerophosphate. A Bradford assay was carried out to determine the protein concentration. The proteins were reduced with 4.5 mM DTT and alkylated with 10 mM iodoacetamide. Trypsin digestion was carried out at room temperature overnight, and tryptic peptides were then acidified with 1% trifluoroacetic acid (TFA) and desalted with C18 Sep-Pak cartridges according to the manufacturer's procedure. TMT Labeling: 100 μg of peptide from each sample was labeled with TMTPro16plex reagent. The label incorporation was checked by LC-MS/MS and spectral counting. […] The samples were then pooled and lyophilized. High pH Reversed Phase Peptide Separation: After lyophilization, the peptides were re-dissolved in 250 μL of 20 mM ammonium formate (pH 10.0). […]
Data Analysis: MaxQuant (version 1.6.14.0)^54 was used to identify proteins and quantify the TMT reporter ion intensities with default settings. […] Samples were normalized within-plex using the Moffitt standard proteomics normalization pipeline iterative rank-order normalization (IRON).^55 Median sample was determined to be Plex_1_TMT-131, DMSO_2. […] Log2 ratios were calculated as the difference between average treatment—average DMSO. P-values were calculated using Welch's 2-sided T-tests, assuming unequal variance. Differentially abundant proteins were determined by having a log 2 ratio ≥2 standard deviations from the mean (+0.1089/−0.1131) and a P-value <0.05. […]

For another assay, the system named is Annexin V. Description: Annexin V expression by IHC in CRC patient-derived organoid models. The class given is cell-based, human. The settings on record: MCC19990-010 and MCC19990-013 PDOs, 1 μM, 24 hours, vs DMSO. The method, then:
To one or two confluent wells of organoids was added 1:5 diluted 500 μL of 5 units/mL dispase in HBSS (StemCell: 07913) and incubated at 37° C. in 5% CO2 atmosphere. Organoids were harvested and transferred to a 1.5 mL Eppendorf tube. The pellet was collected after centrifugation at 1500 rpm for 6 min, and washed with 1×PBS. The pellet was resuspended in 1 mL of 4% PFA and incubated at 4° C. overnight. The pellet was resuspended in 100 μL of 37° C. warmed histogel, centrifuged at 1000 rpm for 30 seconds to settle the organoids. The gel was allowed to polymerize at 4° C. for 10 minutes and then the plug was transferred to a 5 mL tube containing 2 mL 70% ethanol, and sent to the histology lab. Organoids were paraffin-embedded and subjected to serial sections for hematoxylin and eosin staining and immunohistochemistry following a common procedure at the histology lab. The slides/sections were cut at 4 micron thickness using a Leica RM2245 microtome. Charged slides were used.
Immunohistochemical staining of SOS1 on organoids: Slides were stained using a Ventana Discovery Ultra automated system (Ventana Medical Systems, Tucson, AZ) as per manufacturer's protocol with proprietary reagents. Briefly, slides were deparaffinized on the automated system with Discovery Wash Solution (Ventana). Heat-induced antigen retrieval method was used in Cell Conditioning 1 Mild (Ventana). […]

Turning to `COc1cc2c(N[C@H](C)c3cc(N)cc(C(F)(F)F)c3)nc(C)nc2cc1OCC(=O)Nc1cccc2c1CN(C1CCC(=O)NC1=O)C2=O` (stereo partly drawn) [P7, 2-((4-(((R)-1-(3-amino-S-(trifluoromethyl)phenyl)ethyl)amino)-6-methoxy-2-methylquinazolin-7-yl)oxy)-N-(2-(2,6-dioxopiperidin-3-yl)-1-oxoisoindolin-4-yl)acetamide], in the assay on SW620 cells, the “Change in SOS1 protein abundance (specificity of degradation)” value is “among the most degraded proteins”; the “Degradation of GSPT1 and zinc finger transcription factors IKZF1/3” value is on record as “without cereblon-binding lenalidomide induced degradation”; the “Upregulated proteins (ABCG1, SCAP)” value is “significantly upregulated”. The “Annexin V expression by IHC” value in the assay with Annexin V is on record as “increased membranous expression of Annexin V”.
